The source of these data is PMC5483439, “The Effect of Pungent and Tingling Compounds from Piper nigrum L. on Background K^+ Currents” (Frontiers in Pharmacology, 2017).

Experiment [1] deals with background current of mouse trigeminal neurons. Briefly: Whole-cell patch clamp on cultured mouse trigeminal neurons. The settings on record: 100 μM. Type of experiment: cell-based. As for the experimental part: Trigeminal ganglia neurons were isolated from Swiss CD-1 mice (Charles River Laboratories, Sulzfeld, Germany). All experiments involving animals were carried out in accordance with the European Union Community Council’s guidelines and approved by the competent state office of the Federal Land of Northrhine Westphalia (file number 87-51.04.2010.A180). At postnatal day 2–5, the mice were sacrificed by decapitation. The brain was removed, and both trigeminal ganglia were excised. The ganglia were washed in PBS+/+ (Invitrogen, Karlsruhe, Germany) and collected in Leibovitz Medium (L15, Invitrogen) on ice. The ganglia were transferred to Dulbecco’s modified essential medium (DMEM) containing 0.025% collagenase (type IA, Sigma–Aldrich). The minced ganglia were incubated for 45 min in a humidified atmosphere (37°C, 95% humidity, 6% CO2) before trituration. The cell suspension was centrifuged at 1000 rpm for 4 min at room temperature and the pellet was resuspended in F-12 medium (Invitrogen; 31331-D-MEM/F-12, GlutaMax^TM) supplemented with 10% fetal bovine serum (FBS^TM; Invitrogen), 200 U/mL penicillin and 200 U/mL streptomycin. The cell suspension (50 μL) was then plated on poly L-lysine (0.01%) coated glass coverslips (30 mm, Sarstedt, Nümbrecht, Germany), placed in cell culture dishes (35 mm) and kept in a humidified atmosphere (37°C, 95% humidity, 6% CO2) for 1 h. Subsequently, F-12 medium (2 mL) supplemented with FBS (10%), 200 U/mL penicillin and 200 U/mL streptomycin was added to each dish. The cells were kept in an incubator (37°C, 95% humidity, 6% CO2) until use.
The recordings were performed using the whole-cell configuration of the patch-clamp technique. The cells were maintained in an extracellular recording solution containing 140 mM NaCl, 5 mM KCl, 2 mM MgCl2, 2 mM CaCl2, 10 mM HEPES and 10 mM glucose, pH 7.4. The Ca^2+ and Na^+- free extracellular solution contained: 140 mM NMDG-Cl, 5 mM KCl, 2 mM MgCl2, 5 mM EGTA, 10 mM HEPES, pH 7.4. The patch electrodes were pulled from borosilicate glass (1.2 mm OD × 1.17 mm ID; Harvard apparatus, Edenbridge, Kent, United Kingdom) and fire polished to 2.5–4 MΩ tip resistance using a horizontal pipette puller (Zeitz Instruments, Munich, Germany) to obtain a patch of approximately 1–2 μm diameter. The pipette solution contained 140 mM KCl, 1 mM MgCl2, and 10 mM HEPES, pH 7.4. All recordings were performed at room temperature with an EPC7 amplifier (List-Medical Electronic, Darmstadt, Germany). The capacity and serial resistance were adjusted manually. The substances were applied via a custom-made manifold superfusion device. […] The data were acquired using Pulse software (HEKA, Lambrecht, Germany) and analyzed with PulseFit (HEKA, Lambrecht, Germany). Unless otherwise stated, the data are expressed as the mean ± SEM. […]
Background: In patch-clamp work, channel activity is measured electrically.

Experiment [2] deals with tongue surface. On the set-up: method as in Dawid et al., 2012. The settings on record: human, filter paper on tongue; ref Dawid et al., 2012; cited from earlier work.

Regarding `O=C(/C=C/C=C/c1ccc2c(c1)OCO2)N1CCCCC1` [1a, piperine], the “membrane potential change in current clamp” value in experiment [1] (Na+/Ca2+-free conditions) was “mild depolarization”. For the same molecule, in experiment [1] (Na+/Ca2+-free solution, with XE-991, acidic pH, p = 0,00012), the “current inhibition when applied under acidic pH” value is recorded as “significantly decreased”. For the same molecule, the “decrease in the background current” value in experiment [1] (physiological extracellular solution, 13 of 38 neurons, <30 μm diameter) was 19.5 ± 1.8%. Further, the pungent threshold concentration in experiment [2] is 3.0 nmol/cm^2.
